# Measured values from PMC9569420 (Communications Biology, 2022).
# Where “and” joins values, the source holds several entries; their conditions need not be identical. Equal values may be shown once.
# Experiments:
# ASK1/MAP3K5 = biological target: T1, ASK1/MAP3K5 (Homo sapiens, UniProt Q99683); assay: HotSpot kinase assay; assay type: biochemical; settings: read-out: % Enzyme Activity (relative to DMSO controls)
# T1 construct: purchased Reaction Biology Corporation
# BRSK2 = biological target: T2, BRSK2 (Homo sapiens, UniProt Q8IWQ3); assay: HotSpot kinase assay; assay type: biochemical; settings: read-out: % Enzyme Activity (relative to DMSO controls)
# T2 construct: purchased Reaction Biology Corporation
# CAMK1b = biological target: T3, CAMK1b (Homo sapiens, UniProt Q6P2M8); assay: HotSpot kinase assay; assay type: biochemical; settings: read-out: % Enzyme Activity (relative to DMSO controls)
# T3 construct: purchased Reaction Biology Corporation
# CAMKK1 = biological target: T4, CAMKK1 (Homo sapiens, UniProt Q8N5S9); assay: biochemical; settings: read-out: % Enzyme Activity (relative to DMSO controls)
# T4 construct: purchased Reaction Biology Corporation
# T4 sequence (Q8N5S9 whole entry): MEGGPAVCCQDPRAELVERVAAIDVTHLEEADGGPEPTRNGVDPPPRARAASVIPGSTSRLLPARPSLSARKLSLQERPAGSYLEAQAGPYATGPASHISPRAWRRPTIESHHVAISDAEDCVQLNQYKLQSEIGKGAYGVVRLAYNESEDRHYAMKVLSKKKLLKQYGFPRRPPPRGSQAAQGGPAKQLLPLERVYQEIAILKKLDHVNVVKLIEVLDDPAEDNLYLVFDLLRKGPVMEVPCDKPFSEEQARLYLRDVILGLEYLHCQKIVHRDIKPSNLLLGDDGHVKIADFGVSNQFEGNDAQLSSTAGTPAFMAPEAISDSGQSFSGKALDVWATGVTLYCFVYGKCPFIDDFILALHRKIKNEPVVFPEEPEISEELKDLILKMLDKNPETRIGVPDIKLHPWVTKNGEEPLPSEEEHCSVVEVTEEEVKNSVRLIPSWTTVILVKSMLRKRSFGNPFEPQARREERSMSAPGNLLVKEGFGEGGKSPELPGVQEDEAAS
# CDK14/cyclin Y (PFTK1) = biological target: T5, CDK14/cyclin Y (PFTK1) (Homo sapiens, UniProt O94921); assay: HotSpot kinase assay; assay type: biochemical; settings: read-out: % Enzyme Activity (relative to DMSO controls)
# T5 construct: purchased Reaction Biology Corporation
# CDK17/cyclin Y (PCTK2) = biological target: T6, CDK17/cyclin Y (PCTK2) (Homo sapiens, UniProt Q00537); assay: HotSpot kinase assay; assay type: biochemical; settings: read-out: % Enzyme Activity (relative to DMSO controls)
# T6 construct: purchased Reaction Biology Corporation
# CDK19/cyclin C = biological target: T7, CDK19/cyclin C (Homo sapiens, UniProt Q9BWU1); assay: HotSpot kinase assay; assay type: biochemical; settings: read-out: % Enzyme Activity (relative to DMSO controls)
# T7 construct: purchased Reaction Biology Corporation
# DAPK2 = biological target: T8, DAPK2 (Homo sapiens, UniProt Q9UIK4); assay: HotSpot kinase assay; assay type: biochemical; settings: read-out: % Enzyme Activity (relative to DMSO controls)
# T8 construct: purchased Reaction Biology Corporation
# T8 sequence (Q9UIK4 whole entry): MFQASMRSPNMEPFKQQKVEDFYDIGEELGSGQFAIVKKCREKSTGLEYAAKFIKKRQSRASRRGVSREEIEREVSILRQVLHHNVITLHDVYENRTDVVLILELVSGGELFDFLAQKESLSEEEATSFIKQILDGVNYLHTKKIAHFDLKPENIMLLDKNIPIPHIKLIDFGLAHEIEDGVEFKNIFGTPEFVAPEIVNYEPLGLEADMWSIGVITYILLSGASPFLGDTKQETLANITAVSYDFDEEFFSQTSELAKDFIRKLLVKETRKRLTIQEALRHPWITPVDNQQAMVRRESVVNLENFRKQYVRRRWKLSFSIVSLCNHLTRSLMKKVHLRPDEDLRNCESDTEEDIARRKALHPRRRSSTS
# DDR1 = biological target: T9, DDR1 (Homo sapiens, UniProt Q08345); assay: HotSpot kinase assay; assay type: biochemical; settings: read-out: % Enzyme Activity (relative to DMSO controls)
# T9 construct: purchased Reaction Biology Corporation
# EPHA8 = biological target: T10, EPHA8 (Homo sapiens, UniProt P29322); assay: HotSpot kinase assay; assay type: biochemical; settings: read-out: % Enzyme Activity (relative to DMSO controls)
# T10 construct: purchased Reaction Biology Corporation
# EPHB1 = biological target: T11, EPHB1 (Homo sapiens, UniProt P54762); assay: HotSpot kinase assay; assay type: biochemical; settings: read-out: % Enzyme Activity (relative to DMSO controls)
# T11 construct: purchased Reaction Biology Corporation
# EPHB2 = biological target: T12, EPHB2 (Homo sapiens, UniProt P29323); assay: HotSpot kinase assay; assay type: biochemical; settings: read-out: % Enzyme Activity (relative to DMSO controls)
# T12 construct: purchased Reaction Biology Corporation
# GCK/MAP4K2 = biological target: T13, GCK/MAP4K2 (Homo sapiens, UniProt Q12851); assay: HotSpot kinase assay; assay type: biochemical; settings: read-out: % Enzyme Activity (relative to DMSO controls)
# T13 construct: purchased Reaction Biology Corporation
# GRK2 = biological target: T14, GRK2 (Homo sapiens, UniProt P25098); assay: biochemical; settings: read-out: % Enzyme Activity (relative to DMSO controls)
# T14 construct: purchased Reaction Biology Corporation
# GRK5 = biological target: T15, GRK5 (Homo sapiens, UniProt P34947); assay: HotSpot kinase assay; assay type: biochemical; settings: read-out: % Enzyme Activity (relative to DMSO controls)
# T15 construct: purchased Reaction Biology Corporation
# IKKb/IKBKB = biological target: T16, IKKb/IKBKB (Homo sapiens, UniProt O14920); assay: HotSpot kinase assay; assay type: biochemical; settings: read-out: % Enzyme Activity (relative to DMSO controls)
# T16 construct: purchased Reaction Biology Corporation
# T16 sequence (O14920 whole entry): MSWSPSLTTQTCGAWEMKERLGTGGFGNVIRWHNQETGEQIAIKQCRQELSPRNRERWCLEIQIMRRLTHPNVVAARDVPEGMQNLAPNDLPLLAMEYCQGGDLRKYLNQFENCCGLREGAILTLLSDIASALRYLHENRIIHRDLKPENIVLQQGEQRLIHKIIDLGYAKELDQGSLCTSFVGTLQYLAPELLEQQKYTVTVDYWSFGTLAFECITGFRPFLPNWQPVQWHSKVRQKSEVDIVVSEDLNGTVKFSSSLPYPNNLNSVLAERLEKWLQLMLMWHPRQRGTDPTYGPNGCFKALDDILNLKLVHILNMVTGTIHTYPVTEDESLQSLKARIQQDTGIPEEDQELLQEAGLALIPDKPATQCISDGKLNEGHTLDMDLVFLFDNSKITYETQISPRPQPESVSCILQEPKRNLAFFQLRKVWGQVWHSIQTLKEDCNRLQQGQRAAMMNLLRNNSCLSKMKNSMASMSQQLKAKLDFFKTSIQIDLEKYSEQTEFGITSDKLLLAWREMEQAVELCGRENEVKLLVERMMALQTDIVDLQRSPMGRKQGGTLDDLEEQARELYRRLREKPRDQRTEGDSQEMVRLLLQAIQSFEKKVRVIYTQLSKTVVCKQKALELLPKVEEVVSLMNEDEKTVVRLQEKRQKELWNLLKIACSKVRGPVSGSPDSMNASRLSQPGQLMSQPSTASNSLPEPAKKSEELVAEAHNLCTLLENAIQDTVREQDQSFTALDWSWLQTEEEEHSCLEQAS
# JNK3 = biological target: T17, JNK3 (Homo sapiens, UniProt P53779); assay: HotSpot kinase assay; assay type: biochemical; settings: read-out: % Enzyme Activity (relative to DMSO controls)
# T17 construct: purchased Reaction Biology Corporation
# LRRK2 = biological target: T18, LRRK2 (Homo sapiens, UniProt Q5S007); assay: HotSpot kinase assay; assay type: biochemical; settings: read-out: % Enzyme Activity (relative to DMSO controls)
# T18 construct: purchased Reaction Biology Corporation
# MKK7 = biological target: T19, MKK7 (Homo sapiens, UniProt O14733); assay: HotSpot kinase assay; assay type: biochemical; settings: read-out: % Enzyme Activity (relative to DMSO controls)
# T19 construct: purchased Reaction Biology Corporation
# MST2/STK3 = biological target: T20, MST2/STK3 (Homo sapiens, UniProt Q13188); assay: HotSpot kinase assay; assay type: biochemical; settings: read-out: % Enzyme Activity (relative to DMSO controls)
# T20 construct: purchased Reaction Biology Corporation
# T20 sequence (Q13188 whole entry): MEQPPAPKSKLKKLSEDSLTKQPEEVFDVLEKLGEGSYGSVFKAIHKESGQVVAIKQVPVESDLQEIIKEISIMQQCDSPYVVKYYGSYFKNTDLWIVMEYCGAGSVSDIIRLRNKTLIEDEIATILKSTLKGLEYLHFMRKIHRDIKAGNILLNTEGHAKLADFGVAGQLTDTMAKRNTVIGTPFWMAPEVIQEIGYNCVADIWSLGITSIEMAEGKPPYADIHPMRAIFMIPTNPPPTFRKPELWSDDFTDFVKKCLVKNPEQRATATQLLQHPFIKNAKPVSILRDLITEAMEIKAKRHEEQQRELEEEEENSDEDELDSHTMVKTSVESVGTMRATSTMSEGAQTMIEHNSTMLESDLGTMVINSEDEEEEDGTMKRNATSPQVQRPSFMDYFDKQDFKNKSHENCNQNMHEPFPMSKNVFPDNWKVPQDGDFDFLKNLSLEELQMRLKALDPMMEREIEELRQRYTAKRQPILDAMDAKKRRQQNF
# MYLK4 = biological target: T21, MYLK4 (Homo sapiens, UniProt Q86YV6); assay: HotSpot kinase assay; assay type: biochemical; settings: read-out: % Enzyme Activity (relative to DMSO controls)
# T21 construct: purchased Reaction Biology Corporation
# NEK5 = biological target: T22, NEK5 (Homo sapiens, UniProt Q6P3R8); assay: HotSpot kinase assay; assay type: biochemical; settings: read-out: % Enzyme Activity (relative to DMSO controls)
# T22 construct: purchased Reaction Biology Corporation
# NEK9 = biological target: T23, NEK9 (Homo sapiens, UniProt Q8TD19); assay: HotSpot kinase assay; assay type: biochemical; settings: read-out: % Enzyme Activity (relative to DMSO controls)
# T23 construct: purchased Reaction Biology Corporation
# PIM3 = biological target: T24, PIM3 (Homo sapiens, UniProt Q86V86); assay: HotSpot kinase assay; assay type: biochemical; settings: read-out: % Enzyme Activity (relative to DMSO controls)
# T24 construct: purchased Reaction Biology Corporation
# PKCb2 = biological target: T25, PKCb2 (Homo sapiens, UniProt P05771); assay: HotSpot kinase assay; assay type: biochemical; settings: read-out: % Enzyme Activity (relative to DMSO controls)
# T25 construct: purchased Reaction Biology Corporation
# PKCg = biological target: T26, PKCg (Homo sapiens, UniProt P05129); assay: HotSpot kinase assay; assay type: biochemical; settings: read-out: % Enzyme Activity (relative to DMSO controls)
# T26 construct: purchased Reaction Biology Corporation
# PKG1b = biological target: T27, PKG1b (Homo sapiens, UniProt Q13976); assay: HotSpot kinase assay; assay type: biochemical; settings: read-out: % Enzyme Activity (relative to DMSO controls)
# T27 construct: purchased Reaction Biology Corporation
# PKN3/PRK3 = biological target: T28, PKN3/PRK3 (Homo sapiens, UniProt Q6P5Z2); assay: HotSpot kinase assay; assay type: biochemical; settings: read-out: % Enzyme Activity (relative to DMSO controls)
# T28 construct: purchased Reaction Biology Corporation
# RIPK2 = biological target: T29, RIPK2 (Homo sapiens, UniProt O43353); assay: HotSpot kinase assay; assay type: biochemical; settings: read-out: % Enzyme Activity (relative to DMSO controls)
# T29 construct: purchased Reaction Biology Corporation
# RIPK4 = biological target: T30, RIPK4 (Homo sapiens, UniProt P57078); assay: HotSpot kinase assay; assay type: biochemical; settings: read-out: % Enzyme Activity (relative to DMSO controls)
# T30 construct: purchased Reaction Biology Corporation
# T30 sequence (P57078 whole entry): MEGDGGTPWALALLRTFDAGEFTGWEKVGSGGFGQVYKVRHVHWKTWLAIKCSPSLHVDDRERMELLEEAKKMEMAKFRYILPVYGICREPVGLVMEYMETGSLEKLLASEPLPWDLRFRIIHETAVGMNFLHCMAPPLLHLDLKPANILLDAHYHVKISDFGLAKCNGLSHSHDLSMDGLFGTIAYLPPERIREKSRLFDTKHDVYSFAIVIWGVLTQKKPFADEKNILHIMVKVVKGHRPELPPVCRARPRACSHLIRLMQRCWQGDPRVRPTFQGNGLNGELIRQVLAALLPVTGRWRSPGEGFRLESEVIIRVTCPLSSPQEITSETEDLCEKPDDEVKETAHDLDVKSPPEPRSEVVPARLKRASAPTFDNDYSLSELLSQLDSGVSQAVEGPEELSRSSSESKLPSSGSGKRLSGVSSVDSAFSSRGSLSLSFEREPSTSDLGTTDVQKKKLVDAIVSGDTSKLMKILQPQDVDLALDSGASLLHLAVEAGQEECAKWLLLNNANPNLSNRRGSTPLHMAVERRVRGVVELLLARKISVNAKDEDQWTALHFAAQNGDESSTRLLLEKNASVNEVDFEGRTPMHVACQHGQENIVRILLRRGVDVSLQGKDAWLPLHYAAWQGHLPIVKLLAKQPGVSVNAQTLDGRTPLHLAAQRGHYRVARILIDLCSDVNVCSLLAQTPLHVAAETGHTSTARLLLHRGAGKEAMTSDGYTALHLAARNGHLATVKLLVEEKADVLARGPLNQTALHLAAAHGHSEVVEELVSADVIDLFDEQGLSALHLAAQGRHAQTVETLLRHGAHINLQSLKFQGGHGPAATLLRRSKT
# SGK1 = biological target: T31, SGK1 (Homo sapiens, UniProt O00141); assay: HotSpot kinase assay; assay type: biochemical; settings: read-out: % Enzyme Activity (relative to DMSO controls)
# T31 construct: purchased Reaction Biology Corporation
# TESK1 = biological target: T32, TESK1 (Homo sapiens, UniProt Q15569); assay: HotSpot kinase assay; assay type: biochemical; settings: read-out: % Enzyme Activity (relative to DMSO controls)
# T32 construct: purchased Reaction Biology Corporation
# ULK3 = biological target: T33, ULK3 (Homo sapiens, UniProt Q6PHR2); assay: HotSpot kinase assay; assay type: biochemical; settings: read-out: % Enzyme Activity (relative to DMSO controls)
# T33 construct: purchased Reaction Biology Corporation
# YSK4/MAP3K19 = biological target: T34, YSK4/MAP3K19 (Homo sapiens, UniProt Q56UN5); assay: HotSpot kinase assay; assay type: biochemical; settings: read-out: % Enzyme Activity (relative to DMSO controls)
# T34 construct: purchased Reaction Biology Corporation
# EIF2AK2 = biological target: T35, EIF2AK2 (Homo sapiens, UniProt P19525); assay: HotSpot kinase assay; assay type: biochemical; settings: read-out: % Enzyme Activity (relative to DMSO controls)
# T35 construct: purchased Reaction Biology Corporation
# [1] = viability of confluent cells; assay type: cell-based, human; settings: human, HaCat cells at 90–100% confluence, 120 h, replicates (Fig 1c source data), read-out: viability, odu as a percentage of the DMSO control
# HaCat cells = assay: viability of confluent cells; assay type: cell-based, human; settings: 10 μM; for viability, odu as a percentage of the DMSO control: replicates (Fig 1c source data)
# HSV-2(G) [2] = assay: HSV plaque assay, HaCat cells; assay type: cell-based; settings: Human alphaherpesvirus 2, HaCaT, read-out: inhibition of HSV-2 infection
# Procedure: (§1) After 48 h incubation, plaques were counted by immunoassay using an anti–human IgG antibody peroxidase conjugate (PA1-86064, Thermo Fisher)[33]. […] Western blots were prepared and probed for gD as a marker of bound virus and β-actin as a control.
# HSV-2(G) [3] = assay: HSV binding assay (gD western blot), HaCat cells; assay type: cell-based; settings: 10 μM, 4 h at 4 °C
# Procedure: as §1
# PLSCR1 = PLSCR1 phosphorylation (IP/western), HSV-2 infected HaCaT cells; assay type: cell-based, human; settings: 10 μM, 30 min
# in vitro = settings: dog, MDCK-MDR1
# T1 sequence (Q99683 whole entry): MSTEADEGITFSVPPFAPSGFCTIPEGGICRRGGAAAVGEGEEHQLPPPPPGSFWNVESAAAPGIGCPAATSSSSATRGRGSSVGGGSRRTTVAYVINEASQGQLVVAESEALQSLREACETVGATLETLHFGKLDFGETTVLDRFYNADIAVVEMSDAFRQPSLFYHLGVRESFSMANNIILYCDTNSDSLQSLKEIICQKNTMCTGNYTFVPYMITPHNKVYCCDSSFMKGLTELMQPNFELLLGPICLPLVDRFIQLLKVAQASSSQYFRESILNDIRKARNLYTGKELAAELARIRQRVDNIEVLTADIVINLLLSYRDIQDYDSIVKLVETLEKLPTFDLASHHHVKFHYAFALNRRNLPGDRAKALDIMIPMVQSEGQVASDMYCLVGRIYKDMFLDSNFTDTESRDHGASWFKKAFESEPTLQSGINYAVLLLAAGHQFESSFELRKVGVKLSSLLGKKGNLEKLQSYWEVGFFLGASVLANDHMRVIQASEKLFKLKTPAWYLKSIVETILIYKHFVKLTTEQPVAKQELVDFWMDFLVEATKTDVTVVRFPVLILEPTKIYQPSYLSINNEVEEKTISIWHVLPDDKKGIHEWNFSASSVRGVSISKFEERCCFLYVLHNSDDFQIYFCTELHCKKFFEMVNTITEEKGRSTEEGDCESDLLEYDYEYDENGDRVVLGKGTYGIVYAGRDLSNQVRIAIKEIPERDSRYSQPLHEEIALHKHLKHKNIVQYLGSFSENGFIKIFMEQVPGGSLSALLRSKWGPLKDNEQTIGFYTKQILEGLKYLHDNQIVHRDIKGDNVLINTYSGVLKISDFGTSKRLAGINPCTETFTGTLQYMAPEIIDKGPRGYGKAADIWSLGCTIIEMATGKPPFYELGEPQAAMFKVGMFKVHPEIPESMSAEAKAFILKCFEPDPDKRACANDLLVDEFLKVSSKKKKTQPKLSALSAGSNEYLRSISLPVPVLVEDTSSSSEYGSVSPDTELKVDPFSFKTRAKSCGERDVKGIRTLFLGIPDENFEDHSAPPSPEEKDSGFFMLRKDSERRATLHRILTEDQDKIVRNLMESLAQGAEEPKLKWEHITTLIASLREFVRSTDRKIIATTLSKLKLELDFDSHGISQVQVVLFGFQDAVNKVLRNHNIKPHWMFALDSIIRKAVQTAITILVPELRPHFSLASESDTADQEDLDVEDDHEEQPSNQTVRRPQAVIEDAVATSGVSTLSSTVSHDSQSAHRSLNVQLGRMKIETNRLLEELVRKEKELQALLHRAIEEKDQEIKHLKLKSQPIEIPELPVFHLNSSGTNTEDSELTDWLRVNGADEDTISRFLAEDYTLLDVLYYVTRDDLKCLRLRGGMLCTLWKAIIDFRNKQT
structure (smiles),measurement,setting,value
CO[C@@H]1[C@H](N(C)C(=O)CCC(=O)NCc2cn(CCCS(=O)(=O)O)nn2)C[C@H]2O[C@]1(C)n1c3ccccc3c3c4c(c5c6ccccc6n2c5c31)C(=O)NC4 [CIMSS],remaining activity at 10 µM,ASK1/MAP3K5,6.25%
same,remaining activity at 10 µM,BRSK2,1.66%
same,remaining activity at 10 µM,CAMK1b,59.5%
same,remaining activity at 10 µM,CAMKK1,1%
same,remaining activity at 10 µM,CDK14/cyclin Y (PFTK1),74.5%
same,remaining activity at 10 µM,CDK17/cyclin Y (PCTK2),54.2%
same,remaining activity at 10 µM,CDK19/cyclin C,37.9%
same,remaining activity at 10 µM,DAPK2,11.3%
same,remaining activity at 10 µM,DDR1,0.98%
same,remaining activity at 10 µM,EPHA8,70.1%
same,remaining activity at 10 µM,EPHB1,1.91%
same,remaining activity at 10 µM,EPHB2,28.5%
same,remaining activity at 10 µM,GCK/MAP4K2,4.74%
same,remaining activity at 10 µM,GRK2,29.5%
same,remaining activity at 10 µM,GRK5,7.35%
same,remaining activity at 10 µM,IKKb/IKBKB,33.4%
same,remaining activity at 10 µM,JNK3,23.6%
same,remaining activity at 10 µM,LRRK2,1.69%
same,remaining activity at 10 µM,MKK7,96.2%
same,remaining activity at 10 µM,MST2/STK3,3.52%
same,remaining activity at 10 µM,MYLK4,6.48%
same,remaining activity at 10 µM,NEK5,6.56%
same,remaining activity at 10 µM,NEK9,2.81%
same,remaining activity at 10 µM,PIM3,2.51%
same,remaining activity at 10 µM,PKCb2,1.71%
same,remaining activity at 10 µM,PKCg,1.77%
same,remaining activity at 10 µM,PKG1b,13.9%
same,remaining activity at 10 µM,PKN3/PRK3,20.2%
same,remaining activity at 10 µM,RIPK2,41.7%
same,remaining activity at 10 µM,RIPK4,99.1%
same,remaining activity at 10 µM,SGK1,13.4%
same,remaining activity at 10 µM,TESK1,83%
same,remaining activity at 10 µM,ULK3,14.2%
same,remaining activity at 10 µM,YSK4/MAP3K19,3.4%
same,remaining activity at 10 µM,EIF2AK2,9.89%
same,"viability at 120 h, 10 µM",[1],98%
same,"viability, odu as a percentage of the DMSO control",HaCat cells; 24 h,123% and 93.2% and 107%
same,"viability, odu as a percentage of the DMSO control",HaCat cells; 120 h,88.4% and 84%
same,cytotoxicity,HaCat cells; up to 120 h,little or no cytotoxicity
same,inhibition at 10 µM,HSV-2(G) [2],> 75%
same,HSV binding to cells,HSV-2(G) [3],did not block
same,Phosphorylation of PLSCR1,PLSCR1,not
same,"Papp at 1 h, 5 μM",in vitro,0.1 ×10⁻⁶ cm/s
